This passage reports T/C results from PubChem BioAssay AID248 (DTP/NCI, 2004).

For this experiment, the system named is L1210 leukemia ip in BDF1 mice, survival T/C. The experiment can be described thus: NCI In Vivo Anticancer Drug Screen. Data for tumor model L1210 Leukemia (intraperitoneal) in B6D2F1 (BDF1) mice. The conditions noted are these: endpoint: mean survival time, higher = longer survival. Put shortly: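 Read-out is survival time, reported as the treated-group measurement over the vehicle-control measurement.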

The mark [1] stands for this setting: dose: 100.0 mg/kg/injection, schedule: Q01DX001 (ip), vehicle: other.
[2] abbreviates: dose: 200.0 mg/kg/injection, schedule: Q01DX001 (ip), vehicle: other.
Where [3] appears, read: dose: 400.0 mg/kg/injection, schedule: Q01DX001 (ip), vehicle: other.
[4] abbreviates: dose: 100.0 mg/kg/injection, schedule: Q01DX009 (ip), vehicle: Klucel (hydroxypropylcellulose) (HPC).
[5] abbreviates: dose: 100.0 mg/kg/injection, schedule: Q04DX003 (ip), vehicle: Klucel (hydroxypropylcellulose) (HPC).
Setting [6] is: dose: 100.0 mg/kg/injection, schedule: Q01DX009 (ip), vehicle: saline with Tween-80.
Where [7] appears, read: dose: 100.0 mg/kg/injection, schedule: Q04DX002 (ip), vehicle: saline with Tween-80.
Setting [8] is: dose: 200.0 mg/kg/injection, schedule: Q01DX009 (ip), vehicle: saline with Tween-80.
Where [9] appears, read: dose: 200.0 mg/kg/injection, schedule: Q04DX002 (ip), vehicle: saline with Tween-80.
Setting [10] is: dose: 400.0 mg/kg/injection, schedule: Q04DX002 (ip), vehicle: saline with Tween-80.
The mark [11] stands for this setting: dose: 200.0 mg/kg/injection, schedule: Q04DX003 (ip), vehicle: Klucel (hydroxypropylcellulose) (HPC).
[12] abbreviates: dose: 400.0 mg/kg/injection, schedule: Q04DX003 (ip), vehicle: Klucel (hydroxypropylcellulose) (HPC).
Setting [13] is: dose: 200.0 mg/kg/injection, schedule: Q01DX009 (ip), vehicle: Klucel (hydroxypropylcellulose) (HPC).
Setting [14] is: dose: 100.0 mg/kg/injection, schedule: Q01DX001 (ip), vehicle: saline.
Setting [15] is: dose: 200.0 mg/kg/injection, schedule: Q01DX001 (ip), vehicle: saline.
The mark [16] stands for this setting: dose: 400.0 mg/kg/injection, schedule: Q01DX001 (ip), vehicle: saline.
The mark [17] stands for this setting: dose: 50.0 mg/kg/injection, schedule: Q01DX009 (ip), vehicle: saline with Tween-80.

SMILES strings stand for the structures. “And” between values parts separate entries of the source, which are not always exact repeats. Identical values can stand only once. Inconclusive results and toxic doses are left out.

Consider `C=C1C(=O)OCC1C(=O)O` (stereo not drawn), for which the T/C (dose: 75.0 mg/kg/injection, schedule: Q01DX001 (ip), vehicle: saline) was 98 % of control.

For `O=[N+]([O-])c1ccc2cnn(C[N+]34CN5CN(CN(C5)C3)C4)c2c1`, the T/C is, setting by setting: under setting [1], 103 % of control; under setting [2], 100 % of control; under setting [3], 111 % of control.

As to `COC(=O)C12OCC34C(CC5C(C)=C(O)C(=O)CC5(C)C3C(O)C1O)OC(=O)C(OC(=O)C=C(C)C)C24` (stereo not drawn), the T/C (dose: 0.78 mg/kg/injection, schedule: Q04DX002 (ip), vehicle: saline with Tween-80) was 94 % of control; the T/C (dose: 1.56 mg/kg/injection, schedule: Q04DX002 (ip), vehicle: saline with Tween-80) was 102 % of control; the T/C (dose: 3.13 mg/kg/injection, schedule: Q04DX002 (ip), vehicle: saline with Tween-80) was 105 % of control.

As for `c1ccc(C(C2=NCCN2)c2ccccc2)cc1`, the T/C (dose: 25.0 mg/kg/injection, schedule: Q04DX003 (ip), vehicle: Klucel (hydroxypropylcellulose) (HPC)) was 101 % of control; the T/C (dose: 50.0 mg/kg/injection, schedule: Q01DX009 (ip), vehicle: Klucel (hydroxypropylcellulose) (HPC)) is 102 % of control; the T/C (dose: 50.0 mg/kg/injection, schedule: Q04DX003 (ip), vehicle: Klucel (hydroxypropylcellulose) (HPC)) is 106 % of control; the T/C under setting [4] is 91 % of control; the T/C under setting [5] is 101 % of control and 103 % of control.

As for `O=CC(C(O)C(O)C(O)CO)N1CCN(C(C=O)C(O)C(O)C(O)CO)CC1` (stereo not drawn), the T/C is, setting by setting: (dose: 50.0 mg/kg/injection, schedule: Q04DX002 (ip), vehicle: saline) 95 % of control; (dose: 100.0 mg/kg/injection, schedule: Q04DX002 (ip), vehicle: saline) 107 % of control; (dose: 200.0 mg/kg/injection, schedule: Q04DX002 (ip), vehicle: saline) 107 % of control.

Consider `CNCCC(CNC1=NCCN1)(c1cccc2ccccc12)C(C)C` (stereo not drawn), for which the T/C under setting [5] is 94 % of control.

As for `COc1ccc(NC(=S)Nc2ccccc2S)cc1`, the T/C by setting is: under setting [6], 90 % of control; under setting [7], 97 % of control; under setting [8], 97 % of control; under setting [9], 97 % of control; under setting [10], 97 % of control.

Regarding `O=c1[nH]cc(NCc2ccco2)c(=O)[nH]1`, the T/C reads like this: under setting [5], 101 % of control; under setting [11], 88 % of control; under setting [12], 93 % of control.

Turning to `Cc1cc(C2=NCC(C)S2)c(C(C)C)cc1O` (stereo not drawn), the T/C is 93 % of control under setting [7], 104 % of control under setting [9] and 104 % of control under setting [10].

On to `CN(C)CC(=O)Nc1ccc(NC(=O)c2ccc(C(=O)Nc3ccc(NC(=O)CN(C)C)cc3)cc2)cc1`, for which the T/C (dose: 15.0 mg/kg/injection, schedule: Q01DX Z (ip), vehicle: methylcellulose (MC)) was 104 % of control; the T/C (dose: 30.0 mg/kg/injection, schedule: Q01DX Z (ip), vehicle: methylcellulose (MC)) is 106 % of control; the T/C (dose: 60.0 mg/kg/injection, schedule: Q01DX Z (ip), vehicle: methylcellulose (MC)) was 93 % of control; the T/C (dose: 120.0 mg/kg/injection, schedule: Q01DX Z (ip), vehicle: methylcellulose (MC)) is 95 % of control.

Turning to `CC(C)(C)Sc1cc(C#N)ccn1`, the T/C runs as follows: (dose: 50.0 mg/kg/injection, schedule: Q04DX003 (ip), vehicle: other) 100 % of control and 92 % of control; (dose: 100.0 mg/kg/injection, schedule: Q04DX002 (ip), vehicle: other) 103 % of control and 109 % of control; (dose: 200.0 mg/kg/injection, schedule: Q04DX002 (ip), vehicle: other) 98 % of control and 102 % of control; (dose: 400.0 mg/kg/injection, schedule: Q04DX002 (ip), vehicle: other) 103 % of control and 106 % of control.

With `CC(C)(C)CC(Cl)Cl`, the T/C under setting [4] was 100 % of control; the T/C under setting [5] is 96 % of control; the T/C under setting [13] is 101 % of control; the T/C under setting [11] is 98 % of control; the T/C under setting [12] is 94 % of control.

As for `Cc1cccc(C)c1NC(=O)c1ccc(Cl)cc1Cl`, the T/C by setting is: under setting [4], 101 % of control; under setting [5], 98 % of control; under setting [13], 104 % of control; under setting [11], 101 % of control; (dose: 400.0 mg/kg/injection, schedule: Q01DX009 (ip), vehicle: Klucel (hydroxypropylcellulose) (HPC)) 101 % of control; under setting [12], 95 % of control.

In the case of `NNc1ncnc2c1ccn2C1OC(CO)C(O)C1O` (stereo not drawn), the T/C reads like this: (dose: 5.0 mg/kg/injection, schedule: Q01DX001 (ip), vehicle: saline) 110 % of control; (dose: 10.0 mg/kg/injection, schedule: Q01DX001 (ip), vehicle: saline) 110 % of control; (dose: 20.0 mg/kg/injection, schedule: Q01DX001 (ip), vehicle: saline) 121 % of control; (dose: 35.0 mg/kg/injection, schedule: Q01DX001 (ip), vehicle: saline) 108 % of control; (dose: 40.0 mg/kg/injection, schedule: Q01DX001 (ip), vehicle: saline) 115 % of control; (dose: 53.0 mg/kg/injection, schedule: Q01DX001 (ip), vehicle: saline) 114 % of control. Further, the T/C was 114 % of control (dose: 80.0 mg/kg/injection, schedule: Q01DX001 (ip), vehicle: saline) and 119 % of control under setting [14].

Regarding `CCC1=CC(=O)CCC1`, the T/C by setting is: (dose: 50.0 mg/kg/injection, schedule: Q01DX001 (ip), vehicle: saline) 96 % of control; under setting [14], 100 % of control; under setting [15], 102 % of control; under setting [16], 108 % of control.

`CCOC(=O)CC1COC(=O)C1C(=O)OCC` (stereo not drawn): the T/C reads like this: (dose: 12.5 mg/kg/injection, schedule: Q01DX009 (ip), vehicle: saline with Tween-80) 105 % of control; (dose: 25.0 mg/kg/injection, schedule: Q01DX009 (ip), vehicle: saline with Tween-80) 105 % of control and 120 % of control; under setting [17], 95 % of control; under setting [6], 98 % of control and 122 % of control; under setting [8], 118 % of control; (dose: 400.0 mg/kg/injection, schedule: Q01DX009 (ip), vehicle: saline with Tween-80) 106 % of control.

For the molecule `O=CNNC(=O)c1cccc([N+](=O)[O-])c1`, the T/C by setting is: under setting [1], 95 % of control; (dose: 100.0 mg/kg/injection, schedule: Q04DX003 (ip), vehicle: other) 97 % of control; under setting [2], 101 % of control; (dose: 200.0 mg/kg/injection, schedule: Q04DX003 (ip), vehicle: other) 95 % of control; under setting [3], 92 % of control.

For the molecule `Cc1ccc(NC(=O)C2CCC(C)(C(=O)O)C2(C)C)cc1` (stereo not drawn), the T/C is 104 % of control under setting [17], 101 % of control under setting [6] and 93 % of control under setting [8].

As to `Nc1nc(N)c(-c2ccc(Cl)c(Cl)c2)c(C=O)n1`, the T/C is, setting by setting: under setting [14], 107 % of control; under setting [15], 114 % of control; under setting [16], 111 % of control.

Regarding `CC[CH2][Sn]([CH2]CC)([CH2]CC)[CH2]Cc1ccncc1`, the T/C runs as follows: (dose: 6.25 mg/kg/injection, schedule: Q04DX002 (ip), vehicle: saline with Tween-80) 101 % of control; (dose: 12.5 mg/kg/injection, schedule: Q04DX002 (ip), vehicle: saline with Tween-80) 93 % of control; (dose: 25.0 mg/kg/injection, schedule: Q04DX002 (ip), vehicle: saline with Tween-80) 89 % of control.

`COc1cc(N(CCCl)CCCl)c(OC)cc1C=Nc1cccc(Br)c1`: the T/C (dose: 26.6 mg/kg/injection, schedule: Q01DX009 (ip), vehicle: carboxymethylcellulose (CMC)) is 105 % of control; the T/C (dose: 40.0 mg/kg/injection, schedule: Q01DX009 (ip), vehicle: carboxymethylcellulose (CMC)) was 96 % of control; the T/C (dose: 100.0 mg/kg/injection, schedule: Q01DX001 (ip), vehicle: carboxymethylcellulose (CMC)) is 120 % of control; the T/C (dose: 200.0 mg/kg/injection, schedule: Q01DX001 (ip), vehicle: carboxymethylcellulose (CMC)) is 107 % of control; the T/C (dose: 266.0 mg/kg/injection, schedule: Q01DX001 (ip), vehicle: carboxymethylcellulose (CMC)) was 157 % of control.
